Reference: patent US20260007639A1, “COMPOUNDS FOR THE TREATMENT OF NEUROMUSCULAR DISORDERS” (NMD PHARMA A/S, priority 2017, published 2026)

Columns and labels:
[1] = molecular target: T1, CIC-1 channels (Rattus norvegicus, UniProt P35524); experiment: Electrophysiological measurement of compound inhibition of CIC-1 (Gm) in rat soleus muscle fibres: EC50 (Table 7)
T1 sequence (P35524 1-994): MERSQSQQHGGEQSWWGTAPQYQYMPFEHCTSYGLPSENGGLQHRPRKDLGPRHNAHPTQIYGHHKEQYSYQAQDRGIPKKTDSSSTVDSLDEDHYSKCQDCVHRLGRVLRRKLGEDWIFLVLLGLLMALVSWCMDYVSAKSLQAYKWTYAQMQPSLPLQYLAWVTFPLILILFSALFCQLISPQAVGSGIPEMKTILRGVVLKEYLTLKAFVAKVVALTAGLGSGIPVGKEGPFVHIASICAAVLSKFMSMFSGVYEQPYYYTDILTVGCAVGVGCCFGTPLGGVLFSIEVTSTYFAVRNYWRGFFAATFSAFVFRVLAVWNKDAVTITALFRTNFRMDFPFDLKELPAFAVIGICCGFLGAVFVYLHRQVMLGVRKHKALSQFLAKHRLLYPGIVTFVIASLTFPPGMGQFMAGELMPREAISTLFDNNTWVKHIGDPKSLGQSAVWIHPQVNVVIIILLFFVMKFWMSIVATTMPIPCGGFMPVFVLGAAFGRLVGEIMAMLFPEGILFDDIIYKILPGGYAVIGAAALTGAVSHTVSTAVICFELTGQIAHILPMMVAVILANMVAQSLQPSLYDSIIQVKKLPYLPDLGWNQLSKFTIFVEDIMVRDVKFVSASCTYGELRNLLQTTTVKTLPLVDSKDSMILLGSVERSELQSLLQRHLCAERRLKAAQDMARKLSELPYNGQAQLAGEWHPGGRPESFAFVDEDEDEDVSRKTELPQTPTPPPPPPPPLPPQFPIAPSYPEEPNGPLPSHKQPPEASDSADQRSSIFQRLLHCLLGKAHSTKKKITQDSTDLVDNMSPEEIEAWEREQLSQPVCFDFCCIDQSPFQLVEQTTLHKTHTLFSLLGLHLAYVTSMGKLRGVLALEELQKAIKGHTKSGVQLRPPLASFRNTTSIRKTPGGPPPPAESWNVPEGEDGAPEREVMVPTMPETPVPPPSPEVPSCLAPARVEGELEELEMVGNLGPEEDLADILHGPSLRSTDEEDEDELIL

[2] = molecular target: T2, human CIC-1 channels (Homo sapiens, UniProt P35523); experiment: Automated patch-clamp on human CIC-1 expressed in CHO cells: shift of half activation voltage ΔV1/2; type: cell-based; settings: compound in intracellular solution vs control cell patches; CHO cells expressing human CIC-1
T2 construct: host or cells: CHO (Chinese hamster ovary) cells constitutively expressing human ClC-1
Protocol: FIGS. 13A-13B: FIG. 13A illustrates the voltage protocol used to evoke currents in whole cell patches of CHO cells expressing human CIC-1 channels.
Experiments were performed using an automated patch clamp system that allowed high throughput testing of whole cell patches together with both intracellular and extracellular addition of compound.
Automated whole cell patch clamp experiments were performed with the Qpatch 16 system (Sophion Bioscience, Ballerup, Denmark) at room temperature. Data acquisition and analysis were performed in the Qassay software (ver. 5.6, Odense).
To evoke CIC-1 currents in whole cell patches, the membrane potential was initially stepped from a holding potential of −30 mV to +60 mV for 100 ms and then to various test voltages (sweeps) ranging from +120 mV to −140 mV in steps of 20 mV for 300 ms. To obtain tail currents, the membrane potential was stepped to −100 mV after each test voltage for 300 ms and then relaxed to −30 mV for 2 sec between sweeps (FIG. 3).
I/V relationships for whole cell instant and steady state current amplitudes were obtained by plotting average current densities at the beginning and at the end of the 300 ms step against the membrane potential (FIG. 4).
In order to determine the relative overall open probability (Po), the instantaneous tail currents were normalized to the maximal tail current obtained following the most positive voltage step and plotted against the test voltage. Plots of normalized tail currents from each whole cell patch were then fitted to a Boltzmann function allowing determination of half activation voltages (V1/2, FIG. 5).
For automated patch clamp experiments extracellular solutions contained: 2 mM CaCl2), 1 mM MgCl2, 10 mM HEPES, 4 mM KCl, 145 mM NaCl, 10 mM Glucose, pH adjusted to 7.4 with NaOH (2 M). Osmolality adjusted to ˜320 using sucrose.
Intracellular solutions contained: 80 mM CsF, 60 mM CsCl, 5/1 mM KOH/EGTA, 10 mM HEPES, 10 mM NaCl, pH adjusted to 7.2 with NaOH (2 M). Osmolality adjusted to ˜320 mOsm using sucrose.
Cells used in patch clamp experiments were Chinese hamster ovary cells (CHO) constitutively expressing human CIC-1 channels. The amino acid sequence encoded by the cDNA used to create this cell line was identical to the translated sequence for GenBank accession number NM_000083.2. Cells were produced by Charles River (Catalogue CT6175, Cleveland OH, USA) in a cryopreserved format. Experiments were performed on the cells directly after thawing (3×10^6 cells used in each experiment).
To evaluate the compound effect on CIC-1, when applied directly to the intracellular side of the cell membrane, the half activation voltage, V1/2, was determined from whole cell patches with compound added to the intracellular solution and then compared to V1/2 determined from control cell patches with only vehicle added to the intracellular solution. Additionally, the effect of extracellular added compound was evaluated by determine V1/2 and steady state current amplitudes before and after exchanging the extracellular solution to contain compound.
The difference in half activation voltage of CIC-1 channels, ΔV1/2, was determined as the difference between the cell patches treated intracellularly with compound and control cells patches and is reported in Table 4 below. A positive shift in ΔV 1/2 is reflecting CIC-1 channel inhibition by the tested compound. P-values of <0.05 is considered significant.

T2 sequence (P35523 whole entry): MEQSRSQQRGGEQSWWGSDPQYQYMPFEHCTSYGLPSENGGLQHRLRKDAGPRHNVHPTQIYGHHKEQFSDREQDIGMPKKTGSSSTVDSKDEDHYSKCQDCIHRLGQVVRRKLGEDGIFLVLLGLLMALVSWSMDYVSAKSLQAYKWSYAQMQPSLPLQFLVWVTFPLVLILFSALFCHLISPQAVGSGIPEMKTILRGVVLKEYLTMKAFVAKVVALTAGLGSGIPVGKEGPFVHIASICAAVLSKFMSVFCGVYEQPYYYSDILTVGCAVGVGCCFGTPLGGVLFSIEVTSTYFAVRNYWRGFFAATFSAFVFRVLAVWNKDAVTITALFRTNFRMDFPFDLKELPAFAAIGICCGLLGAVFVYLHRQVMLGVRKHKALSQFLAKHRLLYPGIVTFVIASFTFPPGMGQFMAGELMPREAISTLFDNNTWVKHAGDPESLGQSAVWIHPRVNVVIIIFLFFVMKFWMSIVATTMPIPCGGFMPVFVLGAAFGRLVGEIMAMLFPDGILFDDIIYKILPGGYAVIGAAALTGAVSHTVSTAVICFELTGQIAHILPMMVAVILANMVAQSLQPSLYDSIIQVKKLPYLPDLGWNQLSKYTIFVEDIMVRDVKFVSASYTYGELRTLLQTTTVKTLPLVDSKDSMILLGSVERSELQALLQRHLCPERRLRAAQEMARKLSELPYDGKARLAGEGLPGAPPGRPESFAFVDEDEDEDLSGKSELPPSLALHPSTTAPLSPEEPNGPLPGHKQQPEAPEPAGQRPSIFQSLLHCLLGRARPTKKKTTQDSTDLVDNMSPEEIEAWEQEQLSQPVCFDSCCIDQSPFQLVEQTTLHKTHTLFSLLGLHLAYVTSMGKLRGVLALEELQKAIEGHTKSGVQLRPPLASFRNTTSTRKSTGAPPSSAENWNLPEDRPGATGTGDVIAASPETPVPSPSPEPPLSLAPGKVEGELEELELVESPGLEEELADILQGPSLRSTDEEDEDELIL

`C[C@H](Oc1ccc(Cl)cc1-c1ccno1)C(=O)O` [Compound A-26, (2S)-2-[4-chloro-2-(1,2-oxazol-5-yl)phenoxy]propanoic acid] was tested, and the EC50 [1] was 3.6 µM and the “Δ1/2 (mV)” value [2] was 21 mV.
`O=C(O)[C@H](CF)Oc1ccc(Br)cc1-c1ccon1` [Compound A-31, (2R)-2-[4-bromo-2-(1,2-oxazol-3-yl)phenoxy]-3-fluoropropanoic acid] was tested, and the EC50 [1] was 3.3 µM and the “Δ1/2 (mV)” value [2] was 13.8 mV.
In the case of `C[C@H](Oc1cc(F)c(Br)cc1-c1ccon1)C(=O)O` [Compound A-44, (2S)-2-[4-bromo-5-fluoro-2-(1,2-oxazol-3-yl)phenoxy]propanoic acid], the EC50 [1] is reported as 2.9 µM and the “Δ1/2 (mV)” value [2] is reported as 17.7 mV.
`C[C@H](Oc1ccc(Br)cc1-c1csnn1)C(=O)O` [Compound A-59, (2S)-2-[4-bromo-2-(1,2,3-thiadiazol-4-yl)phenoxy]propanoic acid] was tested, and the EC50 [1] was 5.6 µM and the “Δ1/2 (mV)” value [2] was 7.9 mV.
In the case of `O=C(O)COc1ccc(Br)cc1-c1ccon1` [Compound A-64, 2-[4-bromo-2-(1,2-oxazol-3-yl)phenoxy]acetic acid], the EC50 [1] is reported as 7.4 µM and the “Δ1/2 (mV)” value [2] is reported as 11.3 mV.
